Measurements reported in patent publication US11427549B2, “Pyrimidinyloxy benzo-fused compounds as herbicides” (FMC Corporation, priority 2017, dated 2022).

How the values were obtained:
[1] = test system: foxtail, giant (giant foxtail, Setaria faberii); test: Test A preemergence, foxtail, giant; type: in vivo; settings: Setaria faberi, pre-emergence, 240 h, 0 to 100 scale (0 no effect, 100 complete control), read-out: Plant response rating, Foxtail, Giant; for pest or weed control at 31 g/ha: 31 g ai/ha; for pest or weed control at 125 g/ha: 125 g ai/ha
Excerpt: (§1) Seeds of plant species selected from barnyardgrass (Echinochloa crus-galli), kochia (Kochia scoparia), ragweed (common ragweed, Ambrosia elatior), ryegrass, Italian (Italian ryegrass, Lolium multiflorum), foxtail, giant (giant foxtail, Setaria faberii), foxtail, green (green foxtail, Setaria viridis) and pigweed (Amaranthus retroflexus) were planted into a blend of loam soil and sand and treated preemergence with a directed soil spray using test chemicals formulated in a non-phytotoxic solvent mixture which included a surfactant.
(§2) At the same time, plants selected from these weed species and also wheat (Triticum aestivum), corn (Zea mays), blackgrass (Alopecurus myosuroides), and galium (catchweed bedstraw, Galium aparine) were planted in pots containing the same blend of loam soil and sand and treated with postemergence applications of test chemicals formulated in the same manner. Plants ranged in height from 2 to 10 cm and were in the one- to two-leaf stage for the postemergence treatment. Treated plants and untreated controls were maintained in a greenhouse for approximately 10 days, after which time all treated plants were compared to untreated controls and visually evaluated for injury. […] A dash (-) response means no test result.

[2] = test system: foxtail, giant (giant foxtail, Setaria faberii); test: Test A postemergence, foxtail, giant; type: in vivo; settings: Setaria faberi, post-emergence, 240 h, 0 to 100 scale (0 no effect, 100 complete control), read-out: Plant response rating, Foxtail, Giant; for pest or weed control at 31 g/ha: 31 g ai/ha; for pest or weed control at 125 g/ha: 125 g ai/ha
Excerpt: as §1, §2

Row | Compound | pest or weed control at 31 g/ha [1] [%] | pest or weed control at 125 g/ha [1] [%] | pest or weed control at 31 g/ha [2] [%] | pest or weed control at 125 g/ha [2] [%]
1 | FC(F)(F)CCC1COc2cccc(Oc3ncc(Cl)cn3)c21 (centres unmarked) [Compound 36, 5-Chloro-2-[[2,3-dihydro-3-(3,3,3-trifluoropropyl)-4-benzofuranyl]oxy]pyrimidine] | 0 | 60 | 0 | 20
2 | FC(F)(F)CC[C@@H]1OCc2cccc(Oc3ncc(Cl)cn3)c21 [Compound 21, 5-Chloro-2-[[(3S)-1,3-dihydro-3-(3,3,3-trifluoropropyl)-4-isobenzofuranyl]oxy]-pyrimidine] | 0 | 0 | 0 | 20
3 | FC(F)(F)CC[C@H]1OCc2cccc(Oc3ncc(Cl)cn3)c21 [Compound 20, 5-Chloro-2-[[(3R)-1,3-dihydro-3-(3,3,3-trifluoropropyl)-4-isobenzofuranyl]oxy]-pyrimidine] | 100 | 100 | 50 | 90
4 | FC(F)(F)CCCC1COc2cccc(Oc3ncc(Cl)cn3)c21 (centres unmarked) [Compound 33, 5-Chloro-2-[[2,3-dihydro-3-(4,4,4-trifluorobutyl)-4-benzofuranyl]oxy]pyrimidine] | 10 | 100 | 20 | 20
5 | O=C1c2cccc(Oc3ncc(Cl)cn3)c2C1CCC(F)(F)F (centres unmarked) [Compound 24, 2-[(5-Chloro-2-pyrimidinyl)oxy]-8-(3,3,3-trifluoropropyl)bicyclo[4.2.0]octa-1,3,5-trien-7-one] | 0 | 20 | 0 | 50
6 | O=C1OCC(CCC(F)(F)F)c2c(Oc3ncc(Cl)cn3)cccc21 (centres unmarked) [Compound 25, 5-[(5-Chloro-2-pyrimidinyl)oxy]-3,4-dihydro-4-(3,3,3-trifluoropropyl)-1H-2-benzopyran-1-one] | 20 | 90 | 0 | 30
7 | O=C1c2cccc(Oc3ncc(Cl)cn3)c2C1CCCC(F)(F)F (centres unmarked) [Compound 22, 2-[(5-Chloro-2-pyrimidinyl)oxy]-8-(4,4,4-trifluorobutyl)bicyclo[4.2.0]octa-1,3,5-trien-7-one] | 10 | 70 | 0 | 40
8 | FC(F)(F)CCCC1OCCc2cccc(Oc3ncc(Cl)cn3)c21 (centres unmarked) [Compound 27, 5-Chloro-2-[[3,4-dihydro-1-(4,4,4-trifluorobutyl)-1H-2-benzopyran-8-yl]oxy]pyrimidine] | 50 | 100 | 10 | 30
9 | FC(F)(F)CCC1OCCc2cccc(Oc3ncc(Cl)cn3)c21 (centres unmarked) [Compound 32, 5-Chloro-2-[[3,4-dihydro-1-(3,3,3-trifluoropropyl)-1H-2-benzopyran-8-yl]oxy]pyrimidine] | 0 | 50 | 0 | 20
10 | O=C1CCC(CCCC(F)(F)F)c2c(Oc3ncc(Cl)cn3)cccc21 (centres unmarked) [Compound 30, 5-[(5-Chloro-2-pyrimidinyl)oxy]-3,4-dihydro-4-(4,4,4-trifluorobutyl)-1(2H)-naphthalenone] | 10 | 80 | 0 | 40
11 | O=C1OCc2cccc(Oc3ncc(Cl)cn3)c2C1CCCC(F)(F)F (centres unmarked) [Compound 26, 5-[(5-Chloro-2-pyrimidinyl)oxy]-1,4-dihydro-4-(4,4,4-trifluorobutyl)-3H-2-benzopyran-3-one] | 0 | 60 | 0 | 20
